How the values were obtained:
MDA-MB-231 [1] = assay: cells; assay type: functional, cell-based; settings: Homo sapiens, MDA-MB-231, 74 h
Description: Antiproliferative activity against human MDA-MB-231 cells assessed as inhibition of cell growth measured after 74 hrs by SRB assay

A549 = assay: cells; assay type: functional, cell-based; settings: Homo sapiens, A549, 74 h
Description: Antiproliferative activity against human A549 cells assessed as inhibition of cell growth measured after 74 hrs by SRB assay

HeLa = assay: cells; assay type: functional, cell-based; settings: Homo sapiens, 74 h
Description: Antiproliferative activity against human HeLa cells assessed as inhibition of cell growth measured after 74 hrs by SRB assay

HepG2 = assay: Antiproliferative activity against human HepG2 cells assessed as inhibition of cell growth measured after 74 hrs by SRB assay; assay type: functional, cell-based; settings: HepG2, 74 h
MDA-MB-231 [2] = assay: Induction of apoptosis in human MDA-MB-231 cells assessed as necrotic cells at 10 uM incubated for 24 hrs by annexin V-FITC and PI staining based flow cytometry analysis (reference value: 0.68 %); assay type: functional
MDA-MB-231 [3] = assay: Induction of apoptosis in human MDA-MB-231 cells assessed as late apoptotic cells at 10 uM incubated for 24 hrs by annexin V-FITC and PI staining based flow cytometry analysis (reference value: 1.02 %); assay type: functional
MDA-MB-231 [4] = assay: Induction of apoptosis in human MDA-MB-231 cells assessed as early apoptotic cells at 10 uM incubated for 24 hrs by annexin V-FITC and PI staining based flow cytometry analysis (reference value: 4.66 %); assay type: functional
MDA-MB-231 [5] = assay: Induction of apoptosis in human MDA-MB-231 cells assessed as viable cells at 10 uM incubated for 24 hrs by annexin V-FITC and PI staining based flow cytometry analysis (reference value: 93.6 %); assay type: functional; settings: read-out: Activity
MDA-MB-231 [6] = assay: Induction of cell cycle arrest in human MDA-MB-231 cells assessed as accumulation of cells in G1 phase at 10 uM incubated for 24 hrs by PI staining based flow cytometry analysis (reference value: 74.44 %); assay type: functional
MDA-MB-231 [7] = assay: Induction of cell cycle arrest in human MDA-MB-231 cells assessed as accumulation of cells in G2 phase at 10 uM incubated for 24 hrs by PI staining based flow cytometry analysis (reference value: 8.95 %); assay type: functional
MDA-MB-231 [8] = assay: Induction of cell cycle arrest in human MDA-MB-231 cells assessed as accumulation of cells in S phase at 10 uM incubated for 24 hrs by PI staining based flow cytometry analysis (reference value: 16.61 %); assay type: functional
MDA-MB-231 [9] = assay: Induction of cell cycle arrest in human MDA-MB-231 cells assessed as accumulation of cells in G2/G1 phase at 10 uM incubated for 24 hrs by PI staining based flow cytometry analysis (reference value: 1.80 %); assay type: functional

| SMILES | IC50 (MDA-MB-231 [1]) [µM] | IC50 (A549) [µM] | IC50 (HeLa) [µM] | IC50 (HepG2) [µM] | Activity (MDA-MB-231 [2]) [%] | Activity (MDA-MB-231 [3]) [%] | Activity (MDA-MB-231 [4]) [%] | viability at 10 µM (MDA-MB-231 [5]) [%] | Activity (MDA-MB-231 [6]) [%] | Activity (MDA-MB-231 [7]) [%] | Activity (MDA-MB-231 [8]) [%] | Activity (MDA-MB-231 [9]) [%] |
| --- | --- | --- | --- | --- | --- | --- | --- | --- | --- | --- | --- | --- |
| O=C1C=CC2(C=C1)OCC(=O)N2S(=O)(=O)c1ccc(Br)s1 | > 10 | 0.05 | 0.03 | 0.24 | – | – | – | – | – | – | – | – |
| CC1OC2(C=CC(=O)C=C2)N(S(=O)(=O)c2cccs2)C1=O (stereo not drawn) | > 10 | > 10 | 0.27 | > 10 | – | – | – | – | – | – | – | – |
| COc1ccc(/C=C\c2cc(OC)c(OC)c(OC)c2)cc1O [COMBRETASTATIN A4] | – | – | – | – | 0.73 | 4.95 | 20.6 | 73.7 | 8.4 | 91.6 | 0 | 1.8 |
| O=C1C=CC2(C=C1)OCC(=O)N2S(=O)(=O)c1ccc(N2CCCC2=O)cc1 | > 10 | 0.005 | 0.88 | > 10 | – | – | – | – | – | – | – | – |

Continued, in another order:

| IC50 (MDA-MB-231 [1]) [µM] | IC50 (A549) [µM] | IC50 (HeLa) [µM] | IC50 (HepG2) [µM] | SMILES | Activity (MDA-MB-231 [2]) [%] | Activity (MDA-MB-231 [3]) [%] | Activity (MDA-MB-231 [4]) [%] | viability at 10 µM (MDA-MB-231 [5]) [%] | Activity (MDA-MB-231 [6]) [%] | Activity (MDA-MB-231 [7]) [%] | Activity (MDA-MB-231 [8]) [%] | Activity (MDA-MB-231 [9]) [%] |
| --- | --- | --- | --- | --- | --- | --- | --- | --- | --- | --- | --- | --- |
| 2.1 | > 10 | 0.77 | 0.75 | O=C1C=CC2(C=C1)OCC(=O)N2S(=O)(=O)c1ccc(C(F)(F)F)cc1 | – | – | – | – | – | – | – | – |
| > 10 | 0.05 | 0.03 | > 10 | O=C1C=CC2(C=C1)OCC(=O)N2S(=O)(=O)c1ccc(F)c(F)c1 | – | – | – | – | – | – | – | – |
| > 10 | 0.04 | > 10 | > 10 | O=C1C=CC2(C=C1)OCC(=O)N2S(=O)(=O)c1ccc(OC(F)(F)F)cc1 | – | – | – | – | – | – | – | – |
| > 10 | 1.91 | 0.18 | > 10 | N#Cc1cccc(S(=O)(=O)N2C(=O)COC23C=CC(=O)C=C3)c1 | – | – | – | – | – | – | – | – |
| 2.8 | > 10 | > 10 | 0.86 | O=C1C=CC2(C=C1)OCC(=O)N2S(=O)(=O)c1ccc(Cl)cc1 | – | – | – | – | – | – | – | – |
| > 10 | > 10 | > 10 | > 10 | O=C1C=CC2(C=C1)OCC(=O)N2S(=O)(=O)c1ccc([N+](=O)[O-])cc1 | – | – | – | – | – | – | – | – |
| > 10 | 9.61 | 0.57 | > 10 | O=C1C=CC2(C=C1)OCC(=O)N2S(=O)(=O)c1cccc(C(F)(F)F)c1 | – | – | – | – | – | – | – | – |

— ChEMBL document CHEMBL5143618, “Design, synthesis, and antitumor activity evaluation of novel acyl sulfonamide spirodienones” (Bioorg Med Chem, 2022)
